Assay results taken from PubChem BioAssay AID248 (DTP/NCI, 2004).
Values joined by “and” are separate entries in the source; they are usually repeats but may differ in a detail not shown here. Equal values may be shown once. Toxic doses and inconclusive results are not listed. Cut-off read from the data, not from the text of the source: active = T/C of 150% or more; inactive = T/C below 125%.

Tested on: L1210 leukemia ip in BDF1 mice, survival T/C
Experiment: NCI In Vivo Anticancer Drug Screen. Data for tumor model L1210 Leukemia (intraperitoneal) in B6D2F1 (BDF1) mice
Conditions: endpoint: mean survival time, higher = longer survival
How it was run: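 Transplanted-tumor mice were given test agent; controls received vehicle only. Survival readings from the two groups were divided (treated over control).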

[1] = dose: 100.0 mg/kg/injection, schedule: Q01DX001 (ip), vehicle: saline
[2] = dose: 200.0 mg/kg/injection, schedule: Q01DX001 (ip), vehicle: saline
[3] = dose: 400.0 mg/kg/injection, schedule: Q01DX001 (ip), vehicle: saline

Measured: T/C

CC(=O)c1cnn(-c2ccccc2)c1C
inactive: dose: 100.0 mg/kg/injection, schedule: Q01DX009 (ip), vehicle: other 96 % of control | dose: 100.0 mg/kg/injection, schedule: Q04DX003 (ip), vehicle: other 89 % of control | dose: 200.0 mg/kg/injection, schedule: Q01DX009 (ip), vehicle: other 101 % of control | dose: 200.0 mg/kg/injection, schedule: Q04DX003 (ip), vehicle: other 100 % of control | dose: 400.0 mg/kg/injection, schedule: Q01DX009 (ip), vehicle: other 102 % of control | dose: 400.0 mg/kg/injection, schedule: Q04DX003 (ip), vehicle: other 92 % of control

COC(=O)C(C)CC(C)(C)[N+](=O)[O-] (centres undefined)
inactive: dose: 100.0 mg/kg/injection, schedule: Q01DX009 (ip), vehicle: saline with Tween-80 97 % of control | dose: 200.0 mg/kg/injection, schedule: Q01DX009 (ip), vehicle: saline with Tween-80 103 % of control | dose: 400.0 mg/kg/injection, schedule: Q01DX009 (ip), vehicle: saline with Tween-80 97 % of control

O=[N+]([O-])c1ccccc1S(=O)(=O)C1CC1c1ccccc1 (centres undefined)
inactive: [1] 109 % of control | [2] 102 % of control | [3] 103 % of control

Nc1nc(N)nc(CCCCCCc2nc(N)nc(N)n2)n1
inactive: dose: 50.0 mg/kg/injection, schedule: Q01DX001 (ip), vehicle: carboxymethylcellulose (CMC) 88 % of control | dose: 100.0 mg/kg/injection, schedule: Q01DX001 (ip), vehicle: carboxymethylcellulose (CMC) 88 % of control | dose: 200.0 mg/kg/injection, schedule: Q01DX001 (ip), vehicle: carboxymethylcellulose (CMC) 98 % of control

CC(=O)OC(C)(C)/C=C/C(=O)[C@](C)(O)[C@H]1[C@H](O)C[C@@]2(C)[C@@H]3CC=C4[C@@H](C[C@H](O)C(=O)C4(C)C)[C@]3(C)C(=O)C[C@]12C
inactive: dose: 0.12 mg/kg/injection, schedule: Q01DX009 (ip), vehicle: saline 88 % of control | dose: 0.12 mg/kg/injection, schedule: Q04DX003 (ip), vehicle: saline 98 % of control | dose: 0.16 mg/kg/injection, schedule: Q01DX Z (ip), vehicle: saline 100 % of control | dose: 0.25 mg/kg/injection, schedule: Q01DX001 (ip), vehicle: saline 92 % of control | dose: 0.25 mg/kg/injection, schedule: Q01DX009 (ip), vehicle: saline 100 % of control | dose: 0.25 mg/kg/injection, schedule: Q01DX Z (ip), vehicle: saline 113 % of control | dose: 0.25 mg/kg/injection, schedule: Q04DX003 (ip), vehicle: saline 102 % of control | dose: 0.38 mg/kg/injection, schedule: Q01DX Z (ip), vehicle: saline 103 % of control | dose: 0.4 mg/kg/injection, schedule: Q01DX Z (ip), vehicle: carboxymethylcellulose (CMC) 93 % of control and 103 % of control | dose: 0.5 mg/kg/injection, schedule: Q01DX001 (ip), vehicle: saline 98 % of control | dose: 0.5 mg/kg/injection, schedule: Q01DX009 (ip), vehicle: saline 103 % of control | dose: 0.5 mg/kg/injection, schedule: Q04DX003 (ip), vehicle: saline 106 % of control | dose: 0.57 mg/kg/injection, schedule: Q01DX Z (ip), vehicle: saline 103 % of control | dose: 0.8 mg/kg/injection, schedule: Q01DX Z (ip), vehicle: carboxymethylcellulose (CMC) 108 % of control

Nc1cccc(C(=O)Nc2cccc(S(=O)(=O)F)c2)c1
inactive: [1] 95 % of control | [2] 98 % of control | [3] 104 % of control

N#CCCC(C#N)(c1cccnc1)N1CCOCC1 (centres undefined)
inactive: dose: 6.25 mg/kg/injection, schedule: Q04DX002 (ip), vehicle: saline with Tween-80 98 % of control | dose: 12.5 mg/kg/injection, schedule: Q04DX002 (ip), vehicle: saline with Tween-80 98 % of control | dose: 25.0 mg/kg/injection, schedule: Q04DX002 (ip), vehicle: saline with Tween-80 98 % of control

Cc1ccc(O)c(C)n1
inactive: dose: 66.0 mg/kg/injection, schedule: Q01DX009 (ip), vehicle: saline 98 % of control | dose: 150.0 mg/kg/injection, schedule: Q01DX009 (ip), vehicle: saline 97 % of control | dose: 200.0 mg/kg/injection, schedule: Q01DX009 (ip), vehicle: saline 93 % of control | dose: 400.0 mg/kg/injection, schedule: Q01DX009 (ip), vehicle: saline 102 % of control
